Data set [1] deals with human umbilical vein endothelial cells (HUVEC). The experiment in a line: HUVEC proliferation assay (VEGF-stimulated, MTT). The note with it: Homo sapiens, HUVEC, Table 1. The format is cell-based.
The target of data set [2] is unphosphorylated VEGF-R2Δ50 (Homo sapiens, UniProt P35968, DEL940-989/E990V). In words: biochemical. The note with it: for inhibition at 0.05 µM: read-out: FLVK ** (% inhibition); for inhibition at 1 µM: read-out: FLVK ** (% inhibition, cell marked *).
Sequence of unphosphorylated VEGF-R2Δ50 (P35968 with tags, fused parts or gaps DEL940-989/E990V limits assumed): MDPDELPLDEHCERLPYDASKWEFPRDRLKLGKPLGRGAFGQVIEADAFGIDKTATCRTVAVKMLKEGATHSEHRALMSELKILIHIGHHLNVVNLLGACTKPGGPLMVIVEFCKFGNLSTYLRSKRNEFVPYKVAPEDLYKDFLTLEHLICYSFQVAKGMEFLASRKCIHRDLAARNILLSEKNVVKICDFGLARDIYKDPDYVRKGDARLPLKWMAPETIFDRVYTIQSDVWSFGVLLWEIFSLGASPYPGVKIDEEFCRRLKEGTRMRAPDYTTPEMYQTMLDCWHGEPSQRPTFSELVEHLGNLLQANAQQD
A further data set in a line: in vitro. The format is in vitro ADME, human. The note with it: 2 h; for remaining at 2 h, 5 µM: read-out: % remain (HLM, 2 h). How it is done:
Compound metabolism in human liver microsomes was measured by LC-MS analytical assay procedures as follows. First, human liver microsomes (HLM) were thawed and diluted to 5 mg/mL with cold 100 mM potassium phosphate (KPO4) buffer. Appropriate amounts of KPO4 buffer, NADPH-regenerating solution (containing B-NADP, glucose-6-phosphate, glucose-6-phosphate dehydrogenase, and MgCl2), and HLM were preincubated in 13 x 100 mm glass tubes at 37 C for 10 min. (3 tubes per test compound--triplicate). Test compound (5 µM final) was added to each tube to initiate reaction and was mixed by gentle vortexing, followed by incubation at 37 °C. At t=0, 2 h, a 250-µL sample was removed from each incubation tube to separate 12 x 75 mm glass tubes containing 1 mL ice-cold acetonitrile with 0.05 µM reserpine. […] Supernatant was transferred to new 12 x 75 mm glass tubes and evaporated by Speed-Vac centrifugal vacuum evaporator. Samples were reconstituted in 200 µL 0.1 % formic acid/acetonitrile (90/10) and vortexed vigorously to dissolve. The samples were then transferred to separate polypropylene microcentrifuge tubes and centrifuged at 14000 x g for 10 min. (Fisher Micro 14, S/N M0017580). For each replicate (#1-3) at each timepoint (0 and 2 h), an aliquot sample of each test compound was combined into a single HPLC vial insert (6 total samples) for LC-MS analysis, which is described below.

For a further data set, the target named is LCK tyrosine kinase (Homo sapiens, UniProt P06239, C224D/P223M). The experiment in a line: LCK spectrophotometric assay. The format is biochemical. The conditions noted are these: Table 1; compound concentration 1 µM; read-out: Lck-P* (% inhibition). As to the method:
The spectrophotometric assay was carried out as described above for VEGF-R2, except for the following changes in concentration: LCK = 60 nM, MgCl2 = 0 mM, poly(E4Y1) = 20 mM.

The next data set has as its target human FGF-R1 (Homo sapiens, UniProt P11362, C488A/C584S/L457V). In words: FGF-R spectrophotometric assay. The conditions noted are these: Table 1; compound concentration 1 µM; read-out: FGF-P* (% inhibition). The format is biochemical. How it is done:
The spectrophotometric assay was carried out as described above for VEGF-R2, except for the following changes in concentration: FGF-R = 50 nM, ATP = 2 mM, and poly(E4Y1) =15 mM.

[3] abbreviates: + albumin, read-out: HUVEC + albumin IC50.
Where [4] appears, read: human liver microsomes, 5 µM test compound, 37 °C.

Each structure is given as a SMILES string. Where two headings read alike, the source gives them in different places.

Sequence of human FGF-R1 (P11362 456-766 L457V/C488A/C584S): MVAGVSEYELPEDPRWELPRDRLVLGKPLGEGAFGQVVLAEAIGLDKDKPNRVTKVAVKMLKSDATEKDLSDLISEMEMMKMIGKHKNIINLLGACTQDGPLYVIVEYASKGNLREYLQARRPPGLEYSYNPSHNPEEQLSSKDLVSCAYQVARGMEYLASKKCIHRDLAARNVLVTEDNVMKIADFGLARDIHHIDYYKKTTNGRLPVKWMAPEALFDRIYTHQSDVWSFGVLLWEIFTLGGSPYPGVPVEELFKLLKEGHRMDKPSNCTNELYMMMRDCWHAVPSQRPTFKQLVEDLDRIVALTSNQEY
Sequence of LCK tyrosine kinase (P06239 223-509 P223M/C224D): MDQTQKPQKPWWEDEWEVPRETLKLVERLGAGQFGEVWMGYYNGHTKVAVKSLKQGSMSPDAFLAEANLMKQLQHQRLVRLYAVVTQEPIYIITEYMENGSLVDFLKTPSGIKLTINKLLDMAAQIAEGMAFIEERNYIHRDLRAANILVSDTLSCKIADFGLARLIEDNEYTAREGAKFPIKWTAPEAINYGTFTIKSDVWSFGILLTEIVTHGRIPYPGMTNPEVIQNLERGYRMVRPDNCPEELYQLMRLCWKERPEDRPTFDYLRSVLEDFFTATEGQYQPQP

As a reminder, the IC50 is the point on the concentration scale where inhibition reaches its midpoint. A word on the inhibition: it is how much of the control response was suppressed. Regarding `C[C@@H]1C[C@H]1C(=O)Nc1cccc(C(=O)c2ccc3c(/C=C/c4ccccn4)n[nH]c3c2)c1` (racemic) [Reference Example 41(h), 6-[3-((2-RS-trans-methylcyclopropyl)carboxamido)benzoyl]-3-E-[2-(pyridin-2-yl)ethenyl]-1H-indazole], the values for the IC50 in data set [1] (setting [3]) and in data set [1] (read-out: HUVEC IC50) were 25 nM and 2 nM, respectively. In addition, the inhibition at 0.05 µM in data set [2] came to 90%. For the same molecule, the remaining at 2 h, 5 µM in the data set “in vitro” (setting [4]) came to 8%. In addition, on LCK tyrosine kinase, the inhibition at 1 µM came out at 30%.
Usually Ki stands for a dissociation constant, usually derived from enzyme kinetics or from competition with a known ligand. A low value points to tighter binding. Consider `O=C(Cc1ccccn1)Nc1cccc(C(=O)c2ccc3c(/C=C/c4ccccc4)n[nH]c3c2)c1` [19(g), 6-[3-(pyridin-2-ylacetamido)benzoyl]-3-E-styryl-1H-indazole], for which the IC50 in data set [1] (setting [3]) is 1920 nM; in data set [1] (read-out: HUVEC IC50), 18 nM. In data set [2] (FLVK ** (Ki), Table 1), this molecule had a Ki of 0.86 nM. Also, in the data set “in vitro” (setting [4]), the remaining at 2 h, 5 µM was 90%. The inhibition at 1 µM at human FGF-R1 is 59%; on LCK tyrosine kinase, 19%.
Regarding `Cc1cc(C(=O)Nc2cc(C(=O)c3ccc4c(/C=C/c5ccccn5)n[nH]c4c3)c(C)cc2C)n(C)n1` [41(min)], the IC50 was found to be 14.4 nM in data set [1] (setting [3]) and 1.3 nM in data set [1] (read-out: HUVEC IC50). Besides, the inhibition at 0.05 µM in data set [2] amounted to 93%. The “% remain (HLM, 2 h)” value in “in vitro” (human, microsomes, 5 µM) is 94%. The figures for the inhibition at 1 µM at human FGF-R1 and at LCK tyrosine kinase were 46% and 6%, respectively.
As to `COc1cccc(CNC(=O)c2ccccc2Sc2ccc3c(/C=C/c4ccccn4)n[nH]c3c2)c1` [Reference Example 35(aa)], in data set [1] (setting [3]), the IC50 came out at 5 nM. Further, in data set [2], the inhibition at 0.05 µM was determined as 99%. Moreover, the “% remain (HLM, 2 h)” value in the data set “in vitro” (setting [4]) stood at 15%.
Take `O=C(NCc1ccco1)c1ccccc1Sc1ccc2c(/C=C/c3ccccn3)n[nH]c2c1` [Reference Example 35(bb), 6-[2-((fur-2-yl)methylcarbamoyl)phenylsulfanyl]-3-E-[2-(pyridin-2-yl)ethenyl]-1H-indazole]: the IC50 in data set [1] (setting [3]) turned out to be 4.1 nM. In addition, the inhibition at 0.05 µM in data set [2] was found to be 87%. In addition, in “in vitro” (setting [4]), the “% remain (HLM, 2 h)” value is reported as 8%.
On to `Cn1cccc1C(=O)NNC(=O)c1ccccc1Sc1ccc2c(/C=C/c3ccccn3)n[nH]c2c1` [Reference Example 35(e), 6-[2-((1-methylpyrrol-2-ylhydrazido)carbonyl)phenylsulfanyl]-3-E-[2-(pyridin-2-yl)ethenyl)-1H-indazole], for which the concentration for half-maximal inhibition (IC50) in data set [1] (setting [3]) turned out to be 4.8 nM. The inhibition at 0.05 µM in data set [2] turned out to be 99%. In “in vitro” (setting [4]), the “% remain (HLM, 2 h)” value came to 34%. Moreover, the inhibition at 1 µM is 69% at human FGF-R1 and 56% at LCK tyrosine kinase.
`C=C(C)CNC(=O)c1ccccc1Sc1ccc2c(/C=C/c3ccccn3)n[nH]c2c1` [Reference Example 35(ee), 6-[2-(2-Methyl-2-propenylcarbamoyl)phenylsulfanyl]-3-E-[2-(pyridin-2-yl)ethenyl]-1H-indazole]: the IC50 in data set [1] (setting [3]) is 3 nM. Besides, in data set [2], the inhibition at 0.05 µM was found to be 82%. Also, in the data set “in vitro” (setting [4]), the “% remain (HLM, 2 h)” value was found to be 13%.
The like results for `COc1ccc(CNC(=O)c2ccccc2Sc2ccc3c(/C=C/c4ccccn4)n[nH]c3c2)cc1` [Reference Example 35(g)] were, in that order, about 15 nM, 100% and 53%.
Take `Cc1ccc(CNC(=O)c2ccccc2Sc2ccc3c(/C=C/c4ccccn4)n[nH]c3c2)o1` [Reference Example 35(h), 6-[2-((5-Methylfur-2-yl)methylcarbamoyl)phenylsulfanyl)-3-E-[2-(pyridin-2-yl)ethenyl]-1H-indazole]: the IC50 in data set [1] (setting [3]) is 3.6 nM. The inhibition at 0.05 µM in data set [2] stood at 100%. Also, the “% remain (HLM, 2 h)” value in the data set “in vitro” (setting [4]) is on record as 9%.
As for `O=C(NOCC1CC1)c1ccccc1Sc1ccc2c(/C=C/c3ccccn3)n[nH]c2c1` [Reference Example 35(s), 6-[2-((Cyclopropyl)methoxycarbamoyl)phenylsulfanyl]-3-E-[2-(pyridin-2-yl)ethenyl]-1H-indazole], in data set [1] (setting [3]), the IC50 is 4.6 nM. Besides, the inhibition at 1 µM worked out at 60% in data set [2], 64% at human FGF-R1 and 18% on LCK tyrosine kinase. The remaining at 2 h, 5 µM in the data set “in vitro” (setting [4]) was 16%.
Regarding `CCCONC(=O)c1ccccc1Sc1ccc2c(/C=C/c3ccccn3)n[nH]c2c1` [Reference Example 35(t), 6-[2-(n-Propoxycarbamoyl)phenylsulfanyl]-3-E-[2-(pyridin-2-yl)ethenyl]-1H-indazole], the IC50 in data set [1] (setting [3]) amounted to 4 nM. Further, the inhibition at 1 µM in data set [2] was 59%; on human FGF-R1, 63%; on LCK tyrosine kinase it was 12%. Also, the “% remain (HLM, 2 h)” value in the data set “in vitro” (setting [4]) is 7%.
On to `C=CCNC(=O)c1ccccc1Sc1ccc2c(/C=C/c3ccccn3)n[nH]c2c1` [Reference Example 35(u), 6-[2-(Allylcarbamoyl)phenylsulfanyl]-3-E-[2-(pyridin-2-yl)ethenyl]-1H-indazole], for which, in data set [1] (setting [3]), the half-inhibitory concentration (IC50) came to 2.8 nM. Further, in data set [2], the inhibition at 0.05 µM worked out at 79%. In addition, the “% remain (HLM, 2 h)” value in “in vitro” (setting [4]) was 27%.
With `CCNC(=O)c1ccccc1Sc1ccc2c(/C=C/c3ccccn3)n[nH]c2c1` [Reference Example 35(x), 6-[2-(Ethylcarbamoyl)phenylsulfanyl]-3-E-[2-(pyridin-2-yl)ethenyl]-1H-indazole], the IC50 in data set [1] (setting [3]) came out at 2 nM. Further, the inhibition at 0.05 µM in data set [2] came out at 75%. The “% remain (HLM, 2 h)” value in the data set “in vitro” (setting [4]) was 37%.
In the case of `O=C(Nc1nccs1)c1ccccc1Sc1ccc2c(/C=C/c3ccccn3)n[nH]c2c1` [Reference Example 35(y), 6-[2-(Thiazol-2-ylcarbamoyl)phenylsulfanyl]-3-E-[2-(pyridin-2-yl)ethenyl]-1H-indazole], the IC50 in data set [1] (setting [3]) was in the range of 1 to 3 nM. The inhibition at 0.05 µM in data set [2] is 99%. Besides, in “in vitro” (setting [4]), the “% remain (HLM, 2 h)” value is listed as 7%. Besides, the inhibition at 1 µM on human FGF-R1 turned out to be 82%; on LCK tyrosine kinase, 29%.
Take `CCOCCNC(=O)c1ccccc1Sc1ccc2c(/C=C/c3ccccn3)n[nH]c2c1` [Reference Example 35(z), 6-[2-(2-(Ethoxy)ethylcarbamoyl)phenylsulfanyl]-3-E-[2-(pyridin-2-yl)ethenyl]-1H-indazole]: the IC50 in data set [1] (setting [3]) came out at 7.1 nM. Besides, the inhibition at 0.05 µM in data set [2] is 95%. For the same molecule, in “in vitro” (setting [4]), the “% remain (HLM, 2 h)” value is listed as 2%.
Take `CCONC(=O)c1cccc(F)c1Sc1ccc2c(/C=C/c3ccccn3)n[nH]c2c1` [Reference Example 37(a), 6-[6-Fluoro-2-(ethoxycarbamoyl)phenylsulfanyl}-3-E-[2-(pyridin-2-yl)ethenyl]-1H-indazole]: in data set [1] (setting [3]), the IC50 came out at 15 nM. For the same molecule, the inhibition at 0.05 µM in data set [2] was determined as 57%. Further, the “% remain (HLM, 2 h)” value in the data set “in vitro” (setting [4]) is 21, ! %. The inhibition at 1 µM at human FGF-R1 turned out to be 35%; on LCK tyrosine kinase it was 6%.
Turning to `CC(C)ONC(=O)c1cccc(F)c1Sc1ccc2c(/C=C/c3ccccn3)n[nH]c2c1` [Reference Example 37(c), 6-[6-fluoro-2-(isopropoxycarbamoyl)phenylsulfanyl]-3-E-[2-(pyridin-2-yl)ethenyl]-1H-indazole], the IC50 in data set [1] (setting [3]) worked out at 12 nM. In addition, the inhibition at 0.05 µM in data set [2] stood at 83%. Further, the “% remain (HLM, 2 h)” value in “in vitro” (setting [4]) is given as 21%. Moreover, the inhibition at 1 µM was found to be 39% at human FGF-R1 and 12% on LCK tyrosine kinase.
For the molecule `COc1cccc(C(=O)Nc2cccc(C(=O)c3ccc4c(/C=C/c5ccccn5)n[nH]c4c3)c2)c1` [Reference Example 41(bb), 6-[3-(3-methoxybenzamido)benzoyl]-3-E-[2-(pyridin-2-yl)ethenyl]-1H-indazole], the half-maximal inhibitory concentration (IC50) in data set [1] (setting [3]) was in the range of 1 to 3 nM. The inhibition at 0.05 µM in data set [2] came to 99%. For the same molecule, in “in vitro” (setting [4]), the “% remain (HLM, 2 h)” value came out at 110%. The inhibition at 1 µM at human FGF-R1 was determined as 88%; on LCK tyrosine kinase, 76%.
As to `C=CCn1nc(C)cc1C(=O)Nc1cc(C(=O)c2ccc3c(/C=C/c4ccccn4)n[nH]c3c2)ccc1C` [Reference Example 41(ff), 6-[3-((1-Allyl-3-methyl-1H-pyrazol-5-yl)carboxamido)-4-methylbenzoyl]-3-E-[2-(pyridin-2-yl)ethenyl]-1H-indazole], the IC50 in data set [1] (setting [3]) amounted to 5.6 nM. Moreover, the inhibition at 0.05 µM in data set [2] is 98%. In “in vitro” (setting [4]), the “% remain (HLM, 2 h)” value stood at 68%. Moreover, the inhibition at 1 µM at LCK tyrosine kinase was determined as 15%.

These data come from patent EP1614683B1, “Indazole compounds and pharmaceutical compositions for inhibiting protein kinases, and methods for their use” (priority 1999, dated 2001).
